Reference: patent publication US20050222146A1, “N-substituted-n-sulfonylaminocyclopropane compounds and pharmaceutical use thereof” (priority 2003, published 2005)
pIC50: −log10 of the molar value.

Key:
aggrecanase-1 = target: T1, aggrecanase-1 (Homo sapiens, UniProt O75173); experiment: Aggrecanase-1 inhibitory action, Particle Assay (GAG release from aggrecan-containing polyacrylamide particles); type: biochemical; conditions: 37° C. for 15 hr, read-out: Experimental Example 1 IC50 AG1
T1 sequence (O75173 213-837): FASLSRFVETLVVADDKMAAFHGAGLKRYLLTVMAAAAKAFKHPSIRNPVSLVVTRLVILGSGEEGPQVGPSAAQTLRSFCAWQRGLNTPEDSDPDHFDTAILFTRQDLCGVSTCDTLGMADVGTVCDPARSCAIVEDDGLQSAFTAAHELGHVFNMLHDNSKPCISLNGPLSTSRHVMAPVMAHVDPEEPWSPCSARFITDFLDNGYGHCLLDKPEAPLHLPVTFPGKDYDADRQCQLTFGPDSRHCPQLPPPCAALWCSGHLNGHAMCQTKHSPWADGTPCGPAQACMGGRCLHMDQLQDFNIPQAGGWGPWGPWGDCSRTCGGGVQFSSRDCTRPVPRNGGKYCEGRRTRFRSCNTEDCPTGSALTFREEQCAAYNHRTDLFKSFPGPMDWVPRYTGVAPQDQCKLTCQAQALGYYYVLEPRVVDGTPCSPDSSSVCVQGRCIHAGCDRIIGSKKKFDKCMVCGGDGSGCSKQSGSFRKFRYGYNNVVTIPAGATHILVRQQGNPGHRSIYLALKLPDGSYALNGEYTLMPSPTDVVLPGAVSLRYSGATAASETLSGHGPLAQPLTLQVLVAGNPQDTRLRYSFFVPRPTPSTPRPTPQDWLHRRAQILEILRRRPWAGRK
Experimental: Aggrecanase-1 Inhibitory Action
Particle Assay was used for determination of aggrecanase activity.
(§1) The enzyme and substrate were diluted with Tris-HCl buffer, and test compounds were diluted with dimethyl sulfoxide (DMSO).
Test compounds and the enzyme were added into 96-well plate, and polyacrylamide particles containing aggrecan were added as a substrate and the mixture was incubated at 37° C. for 15 hr.
After incubation; the supernatant was transferred to another plate, and mixed with 1,9-dimethylmethylene blue. The absorbance at 595 nm was measured to quantify the amount of glycosaminoglycan (GAG) released in the reaction supernatant. Whale chondroitin sulfate was used as the standard of GAG. The inhibitory activity of the compound in each well (%) was calculated based on the values of enzyme-free well and inhibitor-free well. The inhibitory activity of the compound was represented as IC50 (μM).

MMP-1 = target: T2, MMP-1 (Homo sapiens, UniProt P03956); experiment: MMP-1 inhibitory action, Type I collagen Activity Measurement kit (FITC-labeled collagen type I); type: biochemical; conditions: 37° C. for 3 hr, read-out: Experimental Example 2 IC50 MMP1
T2 sequence (P03956 100-469): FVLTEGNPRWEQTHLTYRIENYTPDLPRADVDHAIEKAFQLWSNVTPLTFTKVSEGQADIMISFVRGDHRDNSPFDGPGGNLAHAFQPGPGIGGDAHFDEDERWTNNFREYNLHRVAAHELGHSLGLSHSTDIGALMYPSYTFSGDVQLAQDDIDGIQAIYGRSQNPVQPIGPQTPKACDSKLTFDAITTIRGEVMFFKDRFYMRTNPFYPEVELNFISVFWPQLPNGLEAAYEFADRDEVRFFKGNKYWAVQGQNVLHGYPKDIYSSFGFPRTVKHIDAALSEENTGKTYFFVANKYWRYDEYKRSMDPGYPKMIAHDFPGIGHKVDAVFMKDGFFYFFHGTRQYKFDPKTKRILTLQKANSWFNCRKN
Experimental: For MMP-1 Assay, Type I collagen Activity Measurement kit (YAGAI YU-72013) modified to a 96-well plate format was used.
The principle of the kit is based on the property of collagen that becomes soluble in ethanol after being cleaved by MMP-1.
as §1
The enzyme and test compounds were added into 96-well plate, and fluorescein isothiocianate (FITC)-labeled collagen type I was added as a substrate and the mixture was incubated at 37° C. for 3 hr.
The reaction was terminated by addition of Tris-HCl buffer containing ethanol. After centrifugation, the supernatant containing denatured substrate was transferred to another 96-well plate. The collagenase activity of MMP-1 was determined by measuring FITC fluorescence intensity (excitation wavelength 485 nm, emission wavelength 530 nm) of each well. The inhibitory activity of the compound in each well (%) was calculated based on the values of enzyme-free well and inhibitor-free well. The inhibitory activity of the compound was represented as IC50 (μM).

Row | Compound | pIC50 (aggrecanase-1) | pIC50 (MMP-1)
1 | Cc1ccc([C@@H]2C[C@@]2(C(=O)O)N(CC(=O)O)S(=O)(=O)c2ccc(-c3ccc(Cl)cc3)cc2)cc1 (relative stereo) [Example 1-18, (1R*,2S*)-1-[carboxymethyl-(4′-chloro-biphenyl-4-sulfonyl)-amino]-2-(4-methyl-phenyl)-cyclopropanecarboxylic acid] | > 6.00 | ≤ 5.00
2 | Cc1ccccc1[C@@H]1C[C@@]1(C(=O)O)N(CC(=O)O)S(=O)(=O)c1ccc(-c2ccc(Cl)cc2)cc1 (relative stereo) [Example 1-19, (1R*,2S*)-1-[carboxymethyl-(4′-chloro-biphenyl-4-sulfonyl)-amino]-2-(2-methyl-phenyl)-cyclopropanecarboxylic acid] | > 6.00 | ≤ 5.00
3 | Cc1cccc([C@@H]2C[C@@]2(C(=O)O)N(CC(=O)O)S(=O)(=O)c2ccc(-c3ccc(Cl)cc3)cc2)c1 (relative stereo) [Example 1-20, (1R*,2S*)-1-[carboxymethyl-(4′-chloro-biphenyl-4-sulfonyl)-amino]-2-(3-methyl-phenyl)-cyclopropanecarboxylic acid] | > 6.00 | ≤ 5.00
4 | COc1ccccc1[C@@H]1C[C@@]1(C(=O)O)N(CC(=O)O)S(=O)(=O)c1ccc(-c2ccc(Cl)cc2)cc1 (relative stereo) [Example 1-22, (1R*,2S*)-1-[carboxymethyl-(4′-chloro-biphenyl-4-sulfonyl)-amino]-2-(2-methoxy-phenyl)-cyclopropanecarboxylic acid] | > 6.00 | ≤ 5.00
5 | O=C(O)CN([C@]1(C(=O)O)C[C@H]1c1ccc(Cl)c(Cl)c1)S(=O)(=O)c1ccc(-c2ccc(Cl)cc2)cc1 (relative stereo) [Example 1-23, (1R*,2S*)-1-[carboxymethyl-(4′-chloro-biphenyl-4-sulfonyl)-amino]-2-(3,4-dichloro-phenyl)-cyclopropanecarboxylic acid] | > 6.00 | ≤ 5.00
6 | O=C(O)CN([C@]1(C(=O)O)C[C@H]1c1cc(Cl)ccc1Cl)S(=O)(=O)c1ccc(-c2ccc(Cl)cc2)cc1 (relative stereo) [Example 1-24, (1R*,2S*)-1-[carboxymethyl-(4′-chloro-biphenyl-4-sulfonyl)-amino]-2-(2,5-dichloro-phenyl)-cyclopropanecarboxylic acid] | > 6.00 | ≤ 5.00
7 | O=C(O)CN([C@]1(C(=O)O)C[C@H]1c1cccc(Oc2ccccc2)c1)S(=O)(=O)c1ccc(-c2ccc(Cl)cc2)cc1 (relative stereo) [Example 1-25, (1R*,2S*)-1-[carboxymethyl-(4′-chloro-biphenyl-4-sulfonyl)-amino]-2-(3-phenoxy-phenyl)-cyclopropanecarboxylic acid] | > 7.00 | ≤ 5.00
8 | O=C(O)CN([C@]1(C(=O)O)C[C@H]1c1ccccc1-c1ccccc1)S(=O)(=O)c1ccc(-c2ccc(Cl)cc2)cc1 (relative stereo) [Example 1-26, (1R*,2S*)-2-biphenyl-2-yl-1-[carboxymethyl-(4′-chloro-biphenyl-4-sulfonyl)-amino]-cyclopropanecarboxylic acid] | > 6.00 | ≤ 5.00
9 | N#Cc1cccc([C@@H]2C[C@@]2(C(=O)O)N(CC(=O)O)S(=O)(=O)c2ccc(-c3ccc(Cl)cc3)cc2)c1 (relative stereo) [Example 1-27, (1R*,2S*)-1-[carboxymethyl-(4′-chloro-biphenyl-4-sulfonyl)-amino]-2-(3-cyano-phenyl)-cyclopropanecarboxylic acid] | > 7.00 | ≤ 5.00
10 | N#Cc1ccccc1[C@@H]1C[C@@]1(C(=O)O)N(CC(=O)O)S(=O)(=O)c1ccc(-c2ccc(Cl)cc2)cc1 (relative stereo) [Example 1-28, (1R*,2S*)-1-[carboxymethyl-(4′-chloro-biphenyl-4-sulfonyl)-amino]-2-(2-cyano-phenyl)-cyclopropanecarboxylic acid] | > 6.00 | ≤ 5.00
